The results in this text go back to patent US20250136702A1, “HUMAN LIFR ANTIGEN BINDING PROTEIN, PREPARATION METHOD THEREFOR, AND APPLICATION THEREOF” (NONA BIOSCIENCES (SUZHOU) CO., LTD., priority 2020, published 2025).

The assay deals with Human pancreatic cancer Capan-2 cells. The experiment in a line: Pharmacodynamics in Capan-2 tumor mouse model. The class given is in vivo, Balb/c nude mice. The settings on record: Capan-2 model, TIW × 9 doses. As for the experimental part: In this experiment, Capan-2 tumor mouse model was used to study the anti-tumor activity of anti-human LIFR antibody. The pharmacodynamics of PR300516 antibody administered alone (5 mg/kg and 15 mg/kg) in Capan-2 mouse model were studied. Human pancreatic cancer Capan-2 cells (ATCC cell bank) were subcutaneously inoculated into female Balb/c nude mice (charles river). The treatment method of the antibody group is: on the 5th day, the 9th day, the 12th day, the 16th day, the 19th day and the 23rd day after the tumor cell inoculation, the mice of each group are injected with the corresponding antibodies in the intraperitoneal cavity. The treatment method of the small molecule inhibitor group is: EC359 small molecule inhibitors were administered orally to mice on days 5, 7, 9, 12, 14, 16, 19, 21 and 23 after tumor cell inoculation. The tumor volume was measured on the 5th, 9th, 12th, 16th, 19th and 23rd days after tumor cell inoculation, and then the mice were euthanized.

The structures appear in SMILES notation.

Take `C#CC(F)(F)[C@]1(O)CC[C@H]2[C@@H]3CCC4=CC(=O)CCC4=C3[C@@H](c3ccc(-c4c(C)cc(C)cc4C)cc3)C[C@@]21C` [EC359, reference compound]: the “TGI (%)” value runs as follows: (5 mg/kg oral) 40.99%; (15 mg/kg oral) 47.85%.
